In patent US8524707B2, “Bicyclic pyrazoles as protein kinase inhibitors” (Nerviano Medical Sciences S.r.l., priority 2008, dated 2013):
Where two headings read alike, the source gives them in different places.

What was measured:
Type in all cases: cell-based
[1] = system: human melanoma cells Mewo (with wild-type B-Raf); experiment: In vitro cell proliferation assay, Mewo; settings: 72 hours, cellular ATP monitoring
Method: (§1) Exponentially growing human melanoma cells A375 (with a mutated B-RAF) and human melanoma cells Mewo (with wild-type B-Raf) were seeded and incubated at 37° C. in a humidified 5% CO2 atmosphere. After 24 hours, scalar doses of the compound were added to the medium and cells oncubated for 72 hours. At the end of treatment, cells were washed and counted. Cell number was determined by a cellular adenosine triphosphate monitoring system. Cell proliferation was compared to control cells and the concentration inhibiting cell growth by 50% was calculated.

[2] = system: human melanoma cells A375 (with a mutated B-RAF); experiment: In vitro cell proliferation assay, A375; settings: A-375, 72 hours, cellular ATP monitoring
Method: as §1

[3] = system: p-MAPK (T202/Y204) in A375 human melanoma cells, having a mutated B-RAF; experiment: p-MAPK (T202/Y204) ArrayScan assay
Method: A375 human melanoma cells, having a mutated B-RAF, are seeded in 384-well poly-lysine coated plates (Matrix) at a density of 1000 cells/well with appropriate medium supplemented with 10% FCS and incubated for 16-24 hours. Cells are treated for 1.5 or 2 hours with increasing doses of compounds (starting dose 10 μM, dilution factor 2.5). At the end of the treatment cells are fixed with p-formaldehyde 3.7% for 15-30 min, then washed twice with D-PBS ([…]) and permeabilized with D-PBS containing 0.1% Triton X-100 and 1% BSA (Sigma-Aldrich) for 15 minutes at room temperature (staining solution). […] After removal of antibody solution, the anti-mouse Cy™2-conjugated (Green) secondary antibody (Amersham) diluted 1:500 in staining solution containing […] DAPI is added. The plate is incubated for 1 hour at 37° C., washed twice and red with Cellomics' ArrayScan VTI (4 fields/well, CytoNucTrans algorithm).
The parameter “MEAN_RingAvgIntenCh2”, which measures the mean cytoplasmatic fluorescence intensity associated to p-MAPK staining, is reported as the final result.

[4] = A-375, read-out: Array Scan A375 IC50
[5] = A-375, A375 cells treated 1.5 or 2 hours, p-MAPK staining, MEAN_RingAvgIntenCh2, read-out: Array Scan A375 IC50

Question: Which results are given for `O=C(Nc1ccc(C(F)(F)F)cc1)Nc1cccc(-c2nn3c(c2-c2ccncc2)SCC3)c1` [compound 5, 1-[3-(7-pyridin-4-yl-2,3-dihydro-pyrazolo[5,1-b]thiazol-6-yl)-phenyl]-3-(4-trifluoromethyl-phenyl)urea]?
Answer: IC50 [1]: 2.63 µM; IC50 [2]: 0.43 µM; IC50 [3, 4]: 0.6 µM

Question: `Oc1cccc(-c2nn3ccsc3c2-c2ccncc2)c1` [compound 20, 3-(7-pyridin-4-yl-pyrazolo[5,1-b]thiazol-6-yl)-phenol] was tested. Which IC50 [1] did it give?
Answer: The IC50 was greater than 10 µM.

Question: And the IC50 [2]?
Answer: The IC50 was 1.17 µM.

Question: What about the IC50 [3, 5] of the same compound?
Answer: The IC50 was 0.36 µM.

Question: Which results are given for `O=C(Nc1ccc(Cl)cc1)Nc1cccc(-c2nn3c(c2-c2ccncc2)SCCC3)c1` [compound 1, 1-(4-chloro-phenyl)-3-[3-(3-pyridin-4-yl-6,7-dihydro-5H-pyrazolo[5,1-b][1,3]thiazin-2-yl)-phenyl]-urea]?
Answer: IC50 [1]: 3.59 µM; IC50 [2]: 2.48 µM; IC50 [3, 5]: 7.37 µM

Question: `O=S(=O)(Nc1cccc(-c2nn3c(c2-c2ccncc2)SCCC3)c1)c1cccc(F)c1` [compound 4, 3-fluoro-N-[3-(3-pyridin-4-yl-6,7-dihydro-5H-pyrazolo[5,1-b][1,3]thiazin-2-yl)-phenyl]-benzenesulfonamide] was tested. Which IC50 [1] did it give?
Answer: Its IC50 is greater than 10 µM.

Question: What about the IC50 [2] of the same compound?
Answer: The IC50 was 7.51 µM.

Question: What about the IC50 [3, 5] of the same compound?
Answer: Its IC50 is 1.62 µM.

Question: What does the source list for `O=C(Nc1ccc(C(F)(F)F)cc1)Nc1cccc(-c2nn3ccsc3c2-c2ccncc2)c1` [compound 22, 1-[3-(7-pyridin-4-yl-pyrazolo[5,1-b]thiazol-6-yl)-phenyl]-3-(4-trifluoromethyl-phenyl)-urea]?
Answer: IC50 [1]: 5.41 µM; IC50 [2]: 1.03 µM; IC50 [3, 5]: 0.44 µM

Question: How did the IC50 [1] turn out when `O=S(=O)(Nc1cccc(-c2nn3c(c2-c2ccncc2)SCCC3)c1)c1ccsc1` [compound 14, thiophene-3-sulfonic acid [3-(3-pyridin-4-yl-6,7-dihydro-5H-pyrazolo[5,1-b][1,3]-thiazin-2-yl)-phenyl]-amide] was run?
Answer: The IC50 was greater than 10 µM.

Question: And the IC50 [2]?
Answer: Its IC50 is 7.07 µM.

Question: And the IC50 [3, 5]?
Answer: Its IC50 is 4.69 µM.

Question: How did the IC50 [1] turn out when `O=C(Nc1ccc(Cl)cc1)Nc1cccc(-c2nn3c(c2-c2ccncc2)SCC3)c1` [compound 6, 1-(4-chloro-phenyl)-3-[3-(7-pyridin-4-yl-2,3-dihydro-pyrazolo[5,1-b]thiazol-6-yl)-phenyl]-urea] was run?
Answer: The IC50 was 5.95 µM.

Question: And the IC50 [2]?
Answer: Its IC50 is 2.33 µM.

Question: And the IC50 [3, 5]?
Answer: The IC50 was 1.38 µM.

Question: How did the IC50 [1] turn out when `O=S(=O)(Nc1ccc(F)c(-c2nn3c(c2-c2ccncc2)SCC3)c1F)c1cc(F)ccc1F` [compound 23, N-[2,4-difluoro-3-(7-pyridin-4-yl-2,3-dihydro-pyrazolo[5,1-b]thiazol-6-yl)-phenyl]-2,5-difluoro-benzenesulfonamide] was run?
Answer: Its IC50 is greater than 10 µM.

Question: What about the IC50 [2] of the same compound?
Answer: Its IC50 is 0.29 µM.

Question: What about the IC50 [3, 5] of the same compound?
Answer: The IC50 was 0.02 µM.

Question: `O=C(Nc1ccc(C(F)(F)F)cc1)Nc1cccc(-c2nn3c(c2-c2ccncc2)SCCC3)c1` [compound 3, 1-[3-(3-pyridin-4-yl-6,7-dihydro-5H-pyrazolo[5,1-b][1,3]thiazin-2-yl)-phenyl]-3-(4-trifluoromethyl-phenyl)-urea] was tested. Which IC50 [1] did it give?
Answer: Its IC50 is 2.54 µM.

Question: And the IC50 [2]?
Answer: The IC50 was 0.91 µM.

Question: And the IC50 [3, 5]?
Answer: Its IC50 is 0.77 µM.

Question: Which results are given for `CC(C)(C)c1ccc(NC(=O)c2cccc(-c3nn4c(c3-c3ccncc3)SCC4)c2)cc1` [compound 15, N-(4-tert-butyl-phenyl)-3-(7-pyridin-4-yl-2,3-dihydro-pyrazolo[5,1-b]thiazol-6-yl)-benzamide]?
Answer: IC50 [1]: 3.09 µM; IC50 [2]: 0.68 µM; IC50 [3, 5]: 0.48 µM

Question: How did the IC50 [1] turn out when `O=S(=O)(Nc1cccc(-c2nn3c(c2-c2ccncc2)SCCC3)c1)c1ccco1` [compound 13, furan-2-sulfonic acid [3-(3-pyridin-4-yl-6,7-dihydro-5H-pyrazolo[5,1-b][1,3]thiazin-2-yl)-phenyl]-amide] was run?
Answer: Its IC50 is greater than 10 µM.

Question: What about the IC50 [2] of the same compound?
Answer: Its IC50 is 9.28 µM.

Question: And the IC50 [3, 5]?
Answer: Its IC50 is 3.03 µM.

Question: For `O=C(Nc1ccc(C(F)(F)F)cc1)Nc1cccc(-c2nn3c(c2-c2ccncc2)[S+]([O-])CC3)c1` (stereo not drawn) [compound 19, 1-[3-(1-oxo-7-pyridin-4-yl-2,3-dihydro-pyrazolo[5,1-b]thiazol-6-yl)-phenyl]-3-(4-trifluoromethyl-phenyl)-urea], which IC50 [1] is on record?
Answer: The IC50 was greater than 10 µM.

Question: What about the IC50 [2] of the same compound?
Answer: The IC50 was 7.68 µM.

Question: What about the IC50 [3, 5] of the same compound?
Answer: The IC50 was 4.69 µM.

Question: Which results are given for `CC(C)(C)c1ccc(NC(=O)Nc2cccc(-c3nn4c(c3-c3ccncc3)SCC4)c2)cc1` [compound 18, 1-(4-tert-butyl-phenyl)-3-[3-(7-pyridin-4-yl-2,3-dihydro-pyrazolo[5,1-b]thiazol-6-yl)-phenyl]-urea]?
Answer: IC50 [1]: > 10 µM; IC50 [2]: 2.16 µM; IC50 [3, 5]: 2.29 µM

Question: Which IC50 [1] does the source give for `Oc1cccc(-c2nn3c(c2-c2ccncc2)SCC3)c1` [compound 7, 3-(7-pyridin-4-yl-2,3-dihydro-pyrazolo[5,1-b]thiazol-6-yl)-phenol] here?
Answer: Its IC50 is greater than 10 µM.

Question: What about the IC50 [2] of the same compound?
Answer: Its IC50 is 0.95 µM.

Question: And the IC50 [3, 5]?
Answer: Its IC50 is 0.75 µM.

Question: With `O=C(Nc1ccc(C(F)(F)F)cc1)c1cccc(-c2nn3c(c2-c2ccncc2)SCC3)c1` [compound 24, 3-(7-pyridin-4-yl-2,3-dihydro-pyrazolo[5,1-b]thiazol-6-yl)-N-(4-trifluoromethyl-phenyl)-benzamide] as the compound, how does the IC50 [1] read?
Answer: Its IC50 is 5.09 µM.

Question: And the IC50 [2]?
Answer: Its IC50 is 1.23 µM.

Question: What about the IC50 [3, 5] of the same compound?
Answer: Its IC50 is 1.46 µM.

Question: Which IC50 [1] does the source give for `O=S(=O)(Nc1cccc(-c2nn3c(c2-c2ccncc2)SCC3)c1)c1cc(F)ccc1F` [compound 11, 2,5-difluoro-N-[3-(7-pyridin-4-yl-2,3-dihydro-pyrazolo[5,1-b]thiazol-6-yl)-phenyl]-benzenesulfonamide] here?
Answer: The IC50 was greater than 10 µM.

Question: And the IC50 [2]?
Answer: The IC50 was 0.66 µM.

Question: And the IC50 [3, 5]?
Answer: Its IC50 is 0.26 µM.

Question: `Cc1ccc(NC(=O)Nc2cccc(-c3nn4c(c3-c3ccncc3)SCCC4)c2)cc1` [compound 2, 1-[3-(3-pyridin-4-yl-6,7-dihydro-5H-pyrazolo[5,1-b][1,3]thiazin-2-yl)-phenyl]-3-p-tolyl-urea] was tested. Which IC50 [1] did it give?
Answer: Its IC50 is 7.25 µM.

Question: And the IC50 [2]?
Answer: Its IC50 is 3.69 µM.

Question: And the IC50 [3, 5]?
Answer: Its IC50 is 5.57 µM.

Question: `NC(=O)c1csc2c(-c3ccncc3)c(-c3cccc(NS(=O)(=O)c4cc(F)ccc4F)c3)nn12` [compound 17, 6-[3-(2,5-difluoro-benzenesulfonylamino)-phenyl]-7-pyridin-4-yl-pyrazolo[5,1-b]thiazole-3-carboxylic acid amide] was tested. Which IC50 [1] did it give?
Answer: The IC50 was greater than 10 µM.

Question: What about the IC50 [2] of the same compound?
Answer: Its IC50 is 1.34 µM.

Question: And the IC50 [3, 5]?
Answer: The IC50 was 1.17 µM.

Question: Which IC50 [1] does the source give for `O=S(=O)(Nc1cccc(-c2nn3c(c2-c2ccncc2)SCCC3)c1)c1cc(F)ccc1F` [compound 9, 2,5-difluoro-N-[3-(3-pyridin-4-yl-6,7-dihydro-5H-pyrazolo[5,1-b][1,3]thiazin-2-yl)-phenyl]-benzenesulfonamide] here?
Answer: Its IC50 is 4.29 µM.

Question: And the IC50 [2]?
Answer: Its IC50 is 1.28 µM.

Question: What about the IC50 [3, 5] of the same compound?
Answer: Its IC50 is 0.46 µM.

Question: What does the source list for `O=S(=O)(Nc1cccc(-c2nn3ccsc3c2-c2ccncc2)c1)c1cc(F)ccc1F` [compound 21, 2,5-difluoro-N-[3-(7-pyridin-4-yl-pyrazolo[5,1-b]thiazol-6-yl)-phenyl]-benzenesulfonamide]?
Answer: IC50 [1]: > 10 µM; IC50 [2]: 3.13 µM; IC50 [3, 5]: 0.21 µM

Question: What does the source list for `Oc1cccc(-c2nn3c(c2-c2ccncc2)SCCC3)c1` [compound 8, 3-(3-pyridin-4-yl-6,7-dihydro-5H-pyrazolo[5,1-b][1,3]thiazin-2-yl)-phenol]?
Answer: IC50 [1]: > 10 µM; IC50 [2]: 1.51 µM; IC50 [3, 4]: 2.04 µM

Question: For `O=C(Cc1ccc(C(F)(F)F)cc1)Nc1cccc(-c2nn3c(c2-c2ccncc2)SCCC3)c1` [compound 12, N-[3-(3-pyridin-4-yl-6,7-dihydro-5H-pyrazolo[5,1-b][1,3]thiazin-2-yl)-phenyl]-2-(4-trifluoromethyl-phenyl)-acetamide], which IC50 [1] is on record?
Answer: Its IC50 is greater than 10 µM.

Question: And the IC50 [2]?
Answer: The IC50 was 3.88 µM.

Question: And the IC50 [3, 5]?
Answer: Its IC50 is 6.39 µM.

Question: What does the source list for `O=S1(=O)CCn2nc(-c3cccc(O)c3)c(-c3ccncc3)c21` [compound 10, 3-(1,1-dioxo-7-pyridin-4-yl-2,3-dihydro-pyrazolo[5,1-b]thiazol-6-yl)-phenol]?
Answer: IC50 [1]: > 10 µM; IC50 [2]: 1.98 µM; IC50 [3, 5]: 0.62 µM
